In publication PMC10671052, “Naphthyl-Substituted Indole and Pyrrole Carboxylic Acids as Effective Antibiotic Potentiators—Inhibitors of Bacterial Cystathionine γ-Lyase” (International Journal of Molecular Sciences, 2023):

Key:
bCSE = biological target: bCSE; design: method as in PMID 34112687; settings: NL2 is from ref 13; read-out: experimental inhibition constant; cited from earlier work
[1] = biological target: S. aureus cystathionine-γ-lyase (bCSE) (Staphylococcus aureus, UniProt A0A0H3K724); assay: IC50 assay: inhibition of H2S production by purified bCSE, WSP5 fluorescent probe; format: biochemical
Sequence of S. aureus cystathionine-γ-lyase (bCSE) (A0A0H3K724 entry or part of it): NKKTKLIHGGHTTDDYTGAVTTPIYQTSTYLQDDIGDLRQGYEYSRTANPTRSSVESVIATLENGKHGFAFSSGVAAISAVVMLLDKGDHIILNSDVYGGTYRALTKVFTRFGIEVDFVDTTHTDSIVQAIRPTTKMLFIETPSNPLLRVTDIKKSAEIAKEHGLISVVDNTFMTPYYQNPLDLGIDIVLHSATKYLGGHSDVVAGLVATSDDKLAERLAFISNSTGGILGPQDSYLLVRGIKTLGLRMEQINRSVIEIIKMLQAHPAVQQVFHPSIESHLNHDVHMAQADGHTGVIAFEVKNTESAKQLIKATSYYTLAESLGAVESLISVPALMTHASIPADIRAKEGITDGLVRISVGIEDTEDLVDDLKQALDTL
Experimental: (§1) Fluorescence spectrophotometry-based inhibitory activity toward purified bCSE and hCSE was measured in a 96-well nonbinding black plate (Greiner, Kremsmunster, Austria) at 100 μL of the reaction mixture per well. bCSE and hCSE (0.02 μM) were preincubated in a thermoshaker (Biosan, Riga, Latvia) (30 °C, 300 rpm) for 40 min in 50 mM sodium phosphate buffer (pH 8.0), supplemented with 10 μM pyridoxal 5′-phosphate (Sigma-Aldrich, St. Louis, MO, USA), 0.1% of Tween 20 (Sigma-Aldrich, St. Louis, MO, USA), and 1.2 μM Washington State Probe-5 (Cayman Chemical, Ann Arbor, MI, USA) (excitation: 500 nm, emission: 530 nm) at different concentrations of a tested inhibitor. The reaction was initiated by the addition of 100 μM L-cysteine (TCI, Chennai, Tamil Nadu, India) in 50 mM sodium phosphate buffer pH 8.0 to the reaction mixture, and the enzymatic activity was monitored for 12 h using a CLARIOstar Plus instrument (BMG LABTECH GmbH, Ortenberg, Germany). The 100 µM L-cysteine concentration used in the experiments corresponds to the maximal reported intracellular concentration in bacteria. The data were normalized to the positive and negative controls, and IC50 values were obtained by fitting to a four-parameter sigmoidal curve (inhibitor vs. response, variable slope model) in GraphPad Prism 8 software (GraphPad by Dotmatics, Boston, MA, USA). Each experiment was conducted with 2–3 technical replicates. IC50 values were means of at least two independent experiments.
(§2) For the production of S. aureus cystathionine-γ-lyase (bCSE) and of human cystathionine-γ-lyase (hCSE), plasmids pSUMO:saCSE (Addgene # 54336) and pNIC28-Bsa4 (Addgene # 42365) were employed. Cultivation of a competent E. coli cell strain (Thermo Fisher Scientific, Waltham, MA, USA), transformed with a target plasmid, was carried out on a selective solid medium with kanamycin. Bacterial cells harboring the plasmid vector were cultured at 37 °C and 180 rpm until OD600 = 0.65. Then, isopropyl β-D1-thiogalactopyranoside (IPTG) was added to a final concentration of 1 mM. To obtain bCSE, the cells were cultured for 3.5 h at 37 °C; to obtain hCSE, the cells were cultured for 18–20 h at 25 °C. After centrifugation, cells were resuspended in a buffer composed of 50 mM Tris–HCl, at a pH of 8.0, and 300 mM sodium chloride. After that, the cells were lysed by ultrasonication, with a pulse duration of 15 s and an interval between pulses of 15 s. The amplitude of the ultrasonic vibrations was 50% of the maximum. After lysis, samples were centrifuged for 15 min (20,000× g at 4 ℃). The pH of the supernatant obtained after the centrifugation was adjusted to 7.5 by the addition of a 1 M solution of Tris–OH. Then, the test sample was subjected to filtration through a polyethersulfone membrane with a pore diameter of 0.22 μm.

[2] = biological target: T1, human cystathionine-γ-lyase (hCSE) (Homo sapiens, UniProt P32929); assay: IC50 assay: inhibition of H2S production by purified hCSE, WSP5 fluorescent probe; format: biochemical; settings: purified hCSE 0.02 μM, 100 μM L-cysteine, WSP5 probe, mean ± SD; read-out: IC50 biochemical assay hCSE
T1 construct: His6-TEV (N, cleaved yes); host or cells: E. coli
T1 sequence (P32929 whole entry): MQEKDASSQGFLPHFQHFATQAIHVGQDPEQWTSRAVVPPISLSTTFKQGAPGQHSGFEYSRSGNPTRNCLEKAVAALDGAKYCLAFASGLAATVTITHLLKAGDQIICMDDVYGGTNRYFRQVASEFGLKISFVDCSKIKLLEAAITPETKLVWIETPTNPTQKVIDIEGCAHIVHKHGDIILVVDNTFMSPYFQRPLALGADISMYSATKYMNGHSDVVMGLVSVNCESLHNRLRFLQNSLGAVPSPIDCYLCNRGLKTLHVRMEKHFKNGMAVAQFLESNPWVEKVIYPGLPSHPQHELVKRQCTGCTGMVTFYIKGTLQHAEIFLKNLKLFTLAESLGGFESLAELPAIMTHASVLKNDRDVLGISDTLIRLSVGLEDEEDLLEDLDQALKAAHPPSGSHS
Experimental: as §1, §2

[3] = system: A. baumannii GIMC5509:ABT-52Ts19; assay: MIC of antibiotics alone and with potentiators, clinical isolate
Experimental: (§3) Overnight (ON) culture of a specific strain was grown in the liquid Luria–Bertani nutrient medium (LB broth, BD Difco) for 18 h at 37 °C, with agitation at 180 rpm using an Innova 44R orbital shaker (Eppendorf, Hamburg, Germany). After a certain period, 50 µL of the ON culture was transferred into 5 mL of the LB medium and grown for 3 h at 37 °C with agitation. Growth in the liquid medium was assessed by means of turbidity of the suspension, measured using a Densi-La-Meter II densitometer (Erba Lachema s.r.o., Brno, Czech Republic). Then, the bacterial suspension was diluted to the concentration 10^6 cells/mL with sterile LB and used as a seed culture [38, 39].
(§4) For the assessment of MICs, 96-well microtiter plates were utilized at 200 µL of a medium per well. Each well was filled with 100 µL of the seed culture. After that, 10 µL of a solution of each tested synthetic compound (potentiators) was added into each experimental well. Finally, 90 µL of twofold serial dilutions of an antibiotic in a sterile LB was added into individual wells.
(§5) As a positive control, we set up wells with 100 µL of the bacterial culture and 100 µL of the sterile LB medium. […] Negative-control wells contained 200 µL of the sterile medium. The plates were incubated in a thermostat for 18–20 h at 37 °C. The bacterial growth was assessed as optical density at 600 nm on a CLARIOstar microplate reader (BMG LABTECH GmbH, Ortenberg, Germany)).

[4] = system: P. aeruginosa GIMC5016:PA1840/36/2015; assay: as above
Experimental: as §3, §4, §5

[5] = A. baumannii GIMC5509:ABT-52Ts19, potentiator 50 µg/mL
[6] = P. aeruginosa GIMC5016:PA1840/36/2015, potentiator 50 µg/mL

## Cc1oc(Cn2ccc3ccc(Br)cc32)cc1C(=O)O [NL2, 5-((6-bromo-1H-indol-1-yl)methyl)-2-methylfuran-3-carboxylic acid]
bCSE
  Ki: 1.8 µM
[1]; IC50 (uM), bCSE enzymatic IC50, rounded, repeated in Table S13
  IC50: 144 µM
[1]; IC50 (uM), bCSE enzymatic IC50, rounded, repeated in Table S14
  IC50: 144 µM
[1]; IC50 biochemical assay bCSE, purified bCSE 0.02 μM, 100 μM L-cysteine, WSP5 probe, mean ± SD
  IC50: 144 ± 9 µM
[2]
  IC50: > 500 µM
[3]; A. baumannii GIMC5509:ABT-52Ts19, piperacillin + tazobactam, potentiator 50 µg/mL
  MIC of Tacillin in combination with potentiator: 128 mg/L
[3]; [5]
  MIC of Cefepim in combination with potentiator: 128 mg/L
  MIC of Meropenem in combination with potentiator: 32 mg/L
[4]; P. aeruginosa GIMC5016:PA1840/36/2015, piperacillin + tazobactam, potentiator 50 µg/mL
  MIC of Tacillin in combination with potentiator: 32 mg/L
[4]; [6]
  MIC of Cefepim in combination with potentiator: 64 mg/L
  MIC of Gentamicin in combination with potentiator: > 512 mg/L
  MIC of Meropenem in combination with potentiator: 8 mg/L
